According to a melting point compilation (Tetko et al.; mined from patent text by program, amines drawn as free bases though some values may be those of a salt):

melting point [°C]	SMILES
105 to 106	CC(=C(C#N)C(=O)c1ccccc1)N(C)C
155 to 157	CCOC(=O)Cc1ccc(-c2nc(COc3ccc(COc4nn(-c5ccccc5)cc4/C=C/c4coc(CC)n4)cc3OC)c(C)o2)cc1
55 to 56	CCCCCCCC(O)CC(=O)O (stereo not given)
138 to 140	CSc1nc(C)ccc1NC(=O)CCCCCSc1nc2ccccc2[nH]1
175 to 177	CNC(=O)N/N=C1/C(=O)N(CCN(C(C)C)C(C)C)c2ccccc21
98 to 115	CCOC(=O)c1cc2cccc(OCc3ccccc3)c2cc1O
136 to 138	CCCCc1nc2c(N)nc3cccnc3c2s1
124	CC1(C)CCC(C)(C)c2cc(C(O)COc3ccc(C(=O)NN4CCCCC4)c(O)c3)ccc21 (stereo not given)
160	COCc1c(C#CBr)ncc2[nH]c3cccc(OCc4ccccc4)c3c12
152 to 154	COc1cccc(OC)c1C=CC(=O)C=Cc1c(OC)cccc1OC
99	C=C(c1ccccc1)S(=O)(=O)c1ccc(C(C)(C)C)cc1
143 to 144	COc1ccc(C2=NN(C3CCN(S(=O)(=O)c4ccccc4OC(F)(F)F)CC3)C(=O)C(C)(C)C2)cc1OC
112 to 113	CC1(C)CCC(C)(C)c2cc(C(C(N)=O)C(=O)OCc3ccccc3)ccc21 (stereo not given)
78 to 80	CCOC(=O)C1=C(COCc2nnn(CCNC(=NC#N)SC)n2)NC(C)=C(C(=O)OC)C1c1cccc(Cl)c1Cl (stereo not given)
65	CCCNC(=O)C(C)(C)N=NC(C)(C)C(=O)NCCC
114 to 116	Cc1cc(SC(C)c2ccc3cn(-c4ccc(C(F)(F)F)cc4)nc3c2)ccc1OC(C)(C)C(=O)O (racemic)
137 to 141	COCc1c(S(C)(=O)=O)ccc(C(=O)O)c1Cl
71 to 72	Cc1oc(C2CC2)nc1COc1ccc(CC(OC(C)C)C(=O)O)c2sccc12 (stereo not given)

melting point [°C]	SMILES
113	CCOc1cccc2oc(C(N)=O)cc12
167 to 169	COc1ccc(NC(=S)NC(=O)c2ccccc2)cc1COc1cc(Cl)cc(Cl)c1
291 to 293	CCn1c2c(c3cc(OC)c(OC)cc3c1=O)C(=O)c1cc3c(cc1-2)OCO3
> 250	COc1cc2c(cc1F)C(=O)c1cc3ccccc3cc1C2=O
88 to 90	CC(C)(C)n1nnc(-c2ccc(CCC(=O)O)cc2)n1
150 to 152	C=Cc1cccc2c(Nc3ccc(O)cc3C)c(C(=O)CCC)cnc12
170 to 171	COC1=C(OC)CC(C=C(C#N)C(N)=O)C=C1 (stereo not given)
140 to 145	CS(=O)(=O)c1ccc(C(=O)Nc2ccc(Cl)c(-c3ccc(OCCCCCCC(=O)NO)cn3)c2)c(Cl)c1
100 to 102	CC(C)N(C(=O)C(F)(F)F)c1cc2c(cc1C(=O)c1ccccc1)OCO2
138 to 141	CN(C)C(=O)c1ccc([N+](=O)[O-])cc1S(=O)(=O)NC(C)(C)C
69	CCSc1ccc2cc(C(C)=O)ccc2c1
> 260	Cc1ccc(Oc2ccccc2C(=N)NN)c(O)c1
75 to 76	CCc1nn(CCNC(=O)COC)c(CC)c1Oc1cc(Cl)cc(Cl)c1
146 to 148	CCCCOc1nc2cccc(C(=O)OC)c2n1Cc1ccc(-c2ccccc2-c2nnn[nH]2)cc1
86	CCCCN(CCCC)c1ccc(C(C#N)=C(C#N)C#N)c(OC)c1
80 to 85	CCCCCCCCCCCCOc1ccc(C=C(C(=O)OCC(O)CO)C(=O)OCC(O)CO)cc1 (stereo not given)
78.2 to 78.4	COc1ccc(-c2cccc(Cl)c2)cc1Cn1cncn1

Continued, compound first:

SMILES	melting point [°C]
CC1(c2ccc(O)c(O)c2)C(=O)Nc2ccccc2C1=O (stereo not given)	259 to 261
Cc1csc(=Nc2ccc(C(C)C(=O)O)c(Cl)c2)n1C (stereo not given)	132 to 133
O=C1NCC(C(F)(F)C(F)(F)C(F)(F)F)C(=O)N1 (stereo not given)	223
CCOP(=O)(OCC)C(C)(C)CC1(C)NC(=O)NC1=O (stereo not given)	142 to 146
O=C(NCCc1ccncc1)c1[nH]c2ccc(Cl)cc2c1S(=O)(=O)c1ccccc1	258 to 260
Cc1c(O)cccc1C(=O)N[C@@H](Cc1ccccc1)[C@H](O)C(=O)N1CSC(C)(C)[C@H]1C(=O)NCc1cccc(OC(F)(F)F)c1	102 to 105
CCc1ccc(-c2ccc(C(C)=S)cc2)cc1	84 to 86
Cc1ccc2c(c1)cc(CCCC(=O)O)n2S(=O)(=O)c1ccc2ncsc2c1	128
CN(C)C(=O)CCC(=O)NC1CCC(CCN2CCC(c3cccc4c3CCO4)CC2)CC1 (stereo not given)	205
CC(C)OC(=O)c1cc(-n2c(=O)[nH]c3c(c2=O)SCC3)c(F)cc1Cl	252 to 254
CS(=O)(=O)c1ccc(-c2cnn(-c3cccc(C(F)(F)F)c3)c(=O)c2-c2ccc(Cl)cc2)cc1	103 to 105
CC(C)(NC(=O)C1=C(C(=O)Nc2cc(OC3CCCC3)c(Cl)cc2F)CCCC1)c1ccc(Cl)cc1	218 to 219
CCOCCCNC(=O)C(C)(C(C)C)C(C)C	30
CC(=O)NC1=NN(c2cccc(C)c2)CC1	222 to 225
C[C@@H]1N=C(c2ccccc2)c2cc(N)ccc2N(C)C1=O	219 to 221
Cc1cc(S(=O)(=O)Nc2cccnc2Nc2ccccc2)c(C)cc1Cl	153 to 154
O=C(CN1CCC(Cc2ccccc2)CC1)Nc1ccc2cn[nH]c2c1	165 to 169
O=C(O)CCc1oc(-n2cncn2)nc1-c1ccc(Cl)cc1	168 to 169
CS(=O)(=O)c1ccc(-c2cc(S(C)(=O)=O)nn2-c2ccc(F)cc2)cc1	209 to 210
Cc1nc(NC(=O)C2=C(O)c3ccc4ccccc4c3S(=O)(=O)N2)sc1C	253
Cc1[nH]c(=O)n(-c2cc(C(=O)OC(C)C)c(Cl)cc2F)c(=O)c1Br	187 to 189
CCN(c1ccc(F)cc1[N+](=O)[O-])S(=O)(=O)c1ccc(C)cc1	93 to 94.5

SMILES	melting point [°C]
FC(F)(F)c1cc(C(F)(F)F)c2[nH]c(N3CCN(c4ncccc4Br)CC3)nc2c1	166
CC(C)C(=O)Nc1nc(N)cnc1-c1cc(Cl)cc(Cl)c1Cl	105 to 108
Cc1cccc(-c2nc(C(C)C)[nH]c2-c2cccc(-c3ccc(C(=O)N4CCS(=O)CC4)cc3)c2)n1	136 to 140
[N-]=[N+]=N[C@H]1C[C@H](C(=O)Nc2ccc(N3CCOCC3=O)cc2)N(C(=O)Nc2ccc(Cl)cc2)C1	145
N#CC(=Cc1cc(O)c(O)c(Cl)c1)C(=O)Nc1cccc(Cl)c1	> 300
Oc1ccc2ccc(OCc3ccccc3)cc2c1	152 to 154
Cc1c(F)c(F)c(C(=O)N[C@@H](C)C(C)C)c(F)c1F	146 to 147
CSC(=C[N+](=O)[O-])NCCSCc1ncccc1Cl	80 to 82.5
Cc1c(Cl)ccc(S(=O)(=O)N(CCc2ccccc2)CC(=O)NCC(=O)O)c1Cl	110
O=C(Nc1ncc(C(=O)NCCO)s1)c1cn(Cc2ccc(Cl)c(Cl)c2)nn1	275
CC12C=CCC1c1ccc3cc(O)ccc3c1CC2 (stereo not given)	162 to 163
COC(OC)C(C)(O)c1cnc(C=O)s1 (stereo not given)	98 to 99
O=S(=O)(Oc1ccc(C2(c3ccc(OS(=O)(=O)c4ccccc4)cc3)c3ccccc3-c3ccccc32)cc1)c1ccccc1	225 to 226
Cc1ccccc1NC(=O)Nc1ccc(CC(=O)NC(CC(C)C)c2cc(C=CC(=O)O)on2)cc1 (stereo not given)	136 to 138
O=C(Nc1cccc2c(CCO)c(Br)cnc12)c1c(Cl)cccc1Cl	199 to 200
O=C(O)CCc1c(C(=O)O)[nH]c2cc(-c3ccccc3)cc(-c3ccccc3)c12	243 to 245
O=C1C(Cl)=C(c2ccccc2)C(=O)N1c1ccccc1Cl	132 to 133
Cn1ncc2c1CSc1cn[nH]c1-2	224 to 226
Cc1ccc(N=CN(C)C=Nc2ccccn2)c(C)c1	100
CNC(=O)N1c2ccccc2CC1C (stereo not given)	158 to 160
Cc1nc(-n2cc(C(=O)NCc3ccc(F)cc3)nn2)sc1C(=O)NCc1ccccc1	198 to 201
O=C(O)C1=C(C(=O)Nc2ccc(Br)cc2F)CCCC1	98 to 99

SMILES	melting point [°C]
Cc1ccc(S(=O)(=O)NC2CCCCN(c3nc4c(c(=O)n(C)c(=O)n4C)n3Cc3ccccc3)C2)cc1 (stereo not given)	80.2 to 88.2
CN1CCC(c2nc3cccnc3[nH]2)CC1	224 to 226
Cc1ccc(-c2nn(-c3cccc([N+](=O)[O-])c3)c(N)c2C(N)=O)cc1	237 to 238
CCCS(=O)c1sc(C(N)=O)c2c1-c1c(cnn1CC)CC2 (stereo not given)	151 to 152
CN1CCc2c([nH]c3ccc(NS(=O)(=O)c4c(Cl)nc5sccn45)cc23)C1	232 to 233
O=C1c2c(O)cccc2C(SCCO)c2cccc(O)c21	146 to 147
O=[N+]([O-])c1ccc2nc(N3CCNCC3)cc(Cl)c2c1	175 to 177
O=[N+]([O-])c1ccccc1COc1cc[nH]n1	87
Cc1ccc2[nH]c(C)c(C(=O)c3ccc(Cl)c(S(N)(=O)=O)c3)c2c1	248 to 250
Nc1nc2sc(CCC3CCCCC3)nn2c(=O)c1[N+](=O)[O-]	249 to 251
CC(=O)N1CCN=C1Nc1ccnn1-c1ccc(F)cc1	162 to 164
CN1C(=O)C(=O)c2cc(S(=O)(=O)N3CCC[C@H]3COc3ccccc3)ccc21	160 to 161
CCCc1nc2cc3c(cc2[nH]1)NC(=O)C3C (stereo not given)	235 to 238
FC(F)(F)c1ccc(Cl)nn1	51 to 52
O=C(NC1(C(=O)O)CC1)C(CS)Cc1ccccc1 (stereo not given)	222 to 224
COC(=O)c1ncn(C2CCCCO2)c1CC#N (stereo not given)	98 to 99
COc1cccc(CNC(=O)c2nc3ccc(F)c(OCCc4ccc(NS(N)(=O)=O)cc4)c3c(=O)[nH]2)c1	204 to 206
Cc1nnc(-c2ccc3occ(-c4ccc(S(C)=O)c(Cl)c4)c3c2)o1 (stereo not given)	196 to 197
CCOC(=O)c1cnc2n(c1=O)CC(C)CC2=NNc1ccccc1 (stereo not given)	165 to 167
O=Cc1cc([N+](=O)[O-])ccc1Oc1ccc(F)cc1	125 to 126
NC(=S)NC1CCCc2sccc21 (stereo not given)	129 to 131
